Measurements as given in publication PMC8282797, “Strictly regulated agonist-dependent activation of AMPA-R is the key characteristic of TAK-653 for robust synaptic responses and cognitive improvement” (Scientific Reports, 2021).
Entries after “also recorded” stand apart in the source; their conditions may differ. Where two headings read alike, the source gives them in different places.

Tested on: AMPA-R
Assay: Whole-cell patch clamp recording in acute PFC slices (AMPA-R-mediated EPSPs)
Format: cell-based, rat
Set-up: key to Synaptic EPSP response: -: No effect or slight effect; +: Potent; ++: Very potent
Conditions: for Synaptic EPSP response: summary grade; for Spike number and EPSP duration after switch from LY451646 (30 μM): 10 μM
Protocol: Coronal PFC slices were prepared from male Sprague–Dawley rats (10- to 14-day-old). The slices including layer V PFC pyramidal neurons were perfused at a flow rate of 1–2 ml/min with recording aCSF containing the following: 124 mM NaCl, 5 mM KCl, 1.2 mM NaH2PO4, 1.5 mM MgCl2, 2.5 mM CaCl2, 10 mM glucose, 24 mM NaHCO3 bubbled with carbogen (95% O2; 5% CO2). Current clamp recordings at holding potential of approximately − 65 mV with constant current were carried out at 32–33 °C using a pipette filled with an intracellular solution consisting of: 140 mM K-gluconate, 4 mM KCl, 10 mM HEPES, 0.2 mM EGTA, 4 mM MgATP, 0.3 mM Na2GTP, pH 7.3 with KOH in the presence of bicuculline (20 μM), CGP52422 (10 μM), and APV (50 μM) to block GABAA and B and NMDA receptors, respectively. Methods are described in the Supplementary Information.
Coronal prefrontal cortex (PFC) slices were prepared from male Sprague-Dawley rats (10- to 14-day-old). Animals were sacrificed following acute decapitation, and their brain was quickly removed and placed in an ice-cold modified artificial cerebrospinal fluid (aCSF) of the following composition: 92 mM N-methyl-D-glucamine (NMDG), 2.5 mM KCl, 1.25 mM NaH2PO4, 30 mM NaHCO3, 20 mM HEPES, 25 mM glucose, 2 mM thiourea, 5 mM Na-ascorbate, 3 mM Na-pyruvate, 0.5 mM CaCl2, and 10 mM MgSO4. The pH of the solution was titrated to 7.3-7.4 with concentrated HCl. Coronal slices were cut at a thickness of 300 μm with using a linear slicer PRO7 (Dosaka EM, Kyoto, Japan). Slices were initially recovered for ≤ 15 min at 34°C and then transferred to a holding chamber containing HEPES holding aCSF (92 mM NaCl, 2.5 mM KCl, 1.25 mM NaH2PO4, 30 mM NaHCO3, 20 mM HEPES, 25 mM glucose, 2 mM thiourea, 5 mM Na-ascorbate, 3 mM Na-pyruvate, 2 mM CaCl2 and 2 mM MgSO4) at room temperature for at least 1 h before starting the recording. The slices were then transferred to the recording chamber mounted on a FN1 microscope (Nikon, Tokyo, Japan), in which they were submerged and perfused at a flow rate of 1-2 ml/min with recording aCSF containing the following: 124 mM NaCl, 5 mM KCl, 1.2 mM NaH2PO4, 1.5 mM MgCl2, 2.5 mM CaCl2, 10 mM glucose, 24 mM NaHCO3. All aCSF solutions were continuously bubbled with carbogen (95% O2; 5% CO2). Differential interference contrast (DIC) microscopy (C10639, Hamamatsu, Japan) was used to visualize pyramidal neurons in the PFC. Patch pipettes (5-6 MΩ) were prepared from borosilicate capillary glass using a micropipette puller PC-10 (NARISHIGE, Tokyo, Japan). Current clamp recordings were carried out at 32-33°C using a pipette filled with intracellular solution consisting of: 140 mM K-gluconate, 4 mM KCl, 10 mM HEPES, 0.2 mM EGTA, 4 mM MgATP, 0.3 mM Na2GTP, pH 7.3 with KOH in the presence of bicuculline (20 μM), CGP52422 (10 μM), and APV (50 μM) to block GABAA and B and NMDA receptors, respectively. Signals were recorded using a Multiclamp 700B amplifier (Molecular Devices, LLC, Orleans Drive Sunnyvale, CA), digitized using a Digidata 1440A interface board, filtered between 2 kHz, sampled at 10 kHz, and analyzed with pClamp10 software. Layer V PFC pyramidal neurons were recorded at holding potential of approximately –65 mV with constant current. A hyperpolarizing step (–20 pA) prior to each stimulation was used to monitor any changes in access resistance. Postsynaptic potentials were evoked by constant current single stimulation pulses (100 μs, 10-100 μA) delivered with a 20-s interstimulus interval using monopolar stimulating electrodes positioned in layer I.

Compound: Cc1onc(O)c1CC(N)C(=O)O (stereo not drawn) [AMPA, alpha-amino-3-hydroxy-5-methyl-4-isoxazole-propionic acid]
- Membrane potentials of recorded neurons (0.3 μM): increased
- Polysynaptic EPSP duration and evoked spike number (0.3 μM, 5 min, membrane held at −65 mV): reduced; also recorded: diminished the suprathreshold response
- Synaptic EPSP response: ─

Compound: CC1=CN2CCS(=O)(=O)N=C2C(c2ccc(OC3CCCCC3)cc2)=N1 [TAK-653, 9-[4-(Cyclohexyloxy)phenyl]-7-methyl-3,4-dihydropyrazino[2,1-c][1,2,4]thiadiazine 2,2-dioxide]
- Membrane potentials of recorded neurons: did not increase
- Spike number and EPSP duration after switch from LY451646 (30 μM): a clear increase
- Suprathreshold response (10 μM for 10 min): enhanced the suprathreshold response
- Spike number and EPSP duration after switch from LY451646 (30 μM) (listed as TAK653): further augmentation of spike number
- Suprathreshold polysynaptic EPSPs (evoked spikes, EPSP duration) (0.3 to 30 μM, 10 min bath application): enhanced
- Synaptic EPSP response: ++
